Literature values as cited in patent publication US20060008806A1, “Method for producing novel DNA sequence with biological activity” (University of Washington, priority 1986, published 2006).

test system: β-lactamases; conditions: Labia, et al., 1979

Row | Compound | Km
1 | CC1(C)S[C@@H]2[C@H](NC(=O)C(C(=O)O)c3ccccc3)C(=O)N2[C@H]1C(=O)O (stereo partly drawn) [carbenicillin] | 10 µM
2 | CC1(C)S[C@@H]2[C@H](NC(=O)Cc3ccccc3)C(=O)N2[C@H]1C(=O)O [benzylpenicillin] | 21 µM
3 | CC1(C)S[C@@H]2[C@H](NC(=O)[C@H](N)c3ccccc3)C(=O)N2[C@H]1C(=O)O [ampicillin] | 31 µM
